# Columns and labels:
# [1] = system: reelin; assay: Reelin cytokine analysis (Human reelin ELISA Kit) in human dermal lymphatic endothelial cells; assay type: cell-based; details: HDLEC, 48 hours, compared with DMSO control group (100%); extract 1-100 μg/ml, compound 100-2000 nmole; FIGS. 3 and 4
# Protocol: Human dermal lymphatic endothelial cells were cultured in 6 well plates for 24 hours, while treated with DMSO as a control group (reference; 100%), treated with the fermented ginseng extract of the preparation example and the compound represented by Chemical Formula 1-1 (Sigma-Aldrich Co., Ltd.) at each concentration of 1 μg/ml, 10 μg/ml, 20 μg/ml, 50 μg/ml, and 100 μg/ml and at each concentration of 100 nmole, 250 nmole, 500 nmole, 1000 nmole, and 2000 nmole, cultured for 48 hours, and then measured with respect to production and activity of reelin through a reelin cytokine analysis according to a manual by using Human reelin ELISA Kit (Mybiosource, Inc., U.S.A.), and the results are shown in FIGS. 3 and 4.
# [2] = system: VEGF-C; assay: VEGF-C cytokine analysis (VEGFC Human ELISA Kit) in normal human epidermal keratinocytes; assay type: cell-based; details: NHEK, 48 hours, compared with DMSO control group (100%); extract 1-100 μg/ml, compound 100-2000 nmoles; FIGS. 5 and 6
# Protocol: Normal human epidermal keratinocytes were cultured in 6 well plates for 24 hours, while treated with DMSO as a control group (reference; 100%), treated with the fermented ginseng extract of the preparation example and the compound represented by Chemical Formula 1-1 (Sigma-Aldrich Co., Ltd.) at each concentration of 1, 10, 20, 50 and 100 μg/ml and at each concentration of 100, 250, 500, 1000, and 2000 nmoles, cultured for 48 hours, and then measured with respect to production and activity of VEGF-C through VEGF-C cytokine analysis by using VEGFC Human ELISA Kit (ThermoFisher Scientific, U.S.A.) according to a manual, and the results are shown in FIGS. 5 and 6.
compound,measurement,setting,value
CC(C)=CCC[C@](C)(O[C@@H]1O[C@H](CO[C@@H]2O[C@H](CO)[C@@H](O)[C@H](O)[C@H]2O)[C@@H](O)[C@H](O)[C@H]1O)[C@H]1CC[C@]2(C)[C@@H]1[C@H](O)C[C@@H]1[C@@]3(C)CC[C@H](O[C@@H]4O[C@H](CO)[C@@H](O)[C@H](O)[C@H]4O)C(C)(C)[C@@H]3CC[C@]12C,production and activity of reelin,[1],improved production and activity of reelin
same,production and activity of VEGF-C,[2],more improved the production and activity of VEGF-C

# — patent US12104195B2, “Reelin/VEGF-C production/activation promoter and skin external composition using the same” (Amorepacific Corporation, priority 2022, dated 2024)
